Consider two compounds from patent US11136339B2, “Dihydroartemisinin diploid derivative, pharmaceutical composition thereof, and application” (priority 2017, dated 2021).

In brackets after ≈: the same amount, converted by molar mass.

Series [1] concerns A549: human lung adenocarcinoma cells. The series can be described thus: Human cancer cell killing test by MTT method, A549. The format is cell-based. Particulars: A549, 96 h, read-out: IC50 A549. The protocol: (§1) Well-growing tumor cells were collected, a RPM11640 medium containing 10% fetal bovine serum was used to prepare […] cell suspension, the tumor cells were inoculated in a 96-well culture plate, and 100 μL of the cell suspension (containing 1000 tumor cells) was added into each well, cultured in 5% CO2 incubator at 37° C. for 24 h, and then added with drugs (see Table 2). Blank control and solvent control were set in the experiment, and tested samples were set with four concentrations, with three parallel wells for each concentration, and cultured in 5% CO2 incubator at 37° C. for 4 days. A culture solution was discarded, and 100 μL of MTT solution (0.4 mg/mL, RPM11640 preparation) was added into each well and incubated at 37° C. for 4 h. A supernatant was discarded, 150 μL of […] was added into each well to dissolve particles, and after slight shaking, an OD value was measured at a detection wavelength of 540 nm and a reference wavelength of 450 nm with a 550 microplate reader.
(§2) Result calculation: a dose-response curve can be obtained by plotting different concentrations of drugs and inhibition rates to cells, from which the median inhibitory concentration (IC50) can be obtained, and results are shown in Table 2. […] This is probably because that the artesunate is released slowly. […]
In general terms: Formazan colour is commonly taken as a measure of viable cells.

The nature of series [2]: Solubility in water. The series is classed as physicochemical. Particulars: 20 °C. As for the experimental part: 0.1 g of product B was dissolved in 20 mL of dichloromethane, added with 10 ml of TFA and 1 mL of triisopropylsilane, and reacted at 25° C. for 2 h. A reaction solution was diluted to 50 mL with dichloromethane, washed three times with saturated NaHCO3, and dried with Na2SO4, and a solvent was evaporated by rotation to obtain crude products. The crude product was purified by silica gel column (a mobile phase was dichloromethane: methanol/65:25) to obtain product of dihydroartemisinin dithiodiglycolic acid dimer carboxyl betaine. […] MS: [M+H]^+ 1039.27.

In series [3] the test system is human erythrocyte infected by plasmodium strain (3D7). The series can be described thus: Plasmodium killing test, SYBR Green I fluorescence method. The series is classed as cell-based. As to conditions: 3D7, Erythrocyte, 48 h, read-out: median inhibitory concentration IC50 for killing plasmodium.
Experimental: Method: a plasmodium killing effect of a sample measured by a SYBR Green I fluorescence method
Material: human erythrocyte infected by plasmodium strain (3D7) (0.5% parasitemia), RPMI 1640 complete medium, and carbon dioxide incubator (5% CO2, 5% O2, equilibrium N2, and 37° C.)
The medium was blank. The erythrocytes were incubated in a carbon dioxide incubator for 48 h (37° C.).
In series [4] the test system is MCF-7: human breast cancer cells. The series can be described thus: Human cancer cell killing test by MTT method, MCF-7. The format is cell-based. As to conditions: MCF7, 96 h, read-out: IC50 MCF-7. The protocol:
as §1, §2

Series [5] relates to HL-60: human promyelocytic leukemia cells. The series can be described thus: Human cancer cell killing test by MTT method, HL-60. The format is cell-based. As to conditions: HL-60, 96 h, read-out: IC50 HL-60. The protocol: as §1, §2
Series [6] in a line: in vivo. Particulars: female, BALB/c, mouse, iv, 10 mg/kg.
Experimental: BALB/c mice (female, five weeks, 20 g to 22 g) were divided into four groups (three mice in each group). […] A PBS solution of drugs was injected through tail vein.
Blood samples were respectively taken at predetermined times (0.25 h, 0.5 h, 1 h, 3 h, 6 h, 12 h, 24 h and 48 h) and centrifuged at 3,000 rpm for 10 min to obtain plasma.
Series [7] deals with Hep G2: human liver cancer cells. The series can be described thus: Human cancer cell killing test by MTT method, Hep G2. As to conditions: HepG2, 96 h, read-out: IC50 Hep G2. The format is cell-based. As for the experimental part:
as §1, §2

Series [8] relates to HeLa:
The series can be described thus: Human cancer cell killing test by MTT method, HeLa. The series is classed as cell-based. As to conditions: 96 h, read-out: IC50 HeLa. As for the experimental part:
as §1, §2

Series [9] in a line: In-vivo toxicity test of a mouse, oral administration. Particulars: ICR mouse, male. The source says:
Animal: ICR mouse, male, 18 g to 22 g, purchased from Vital River Laboratory Animal Technology Co., Ltd.

The term solubility denotes how much of the substance goes into solution per volume. A lower solubility goes with a poorly soluble substance. By AUC(0-t) is commonly meant the area under the concentration-time curve up to a stated or last time point. Low values mean low exposure, high ones high exposure. One may read the Cmax as the peak of the concentration-time curve. As a reminder, the MRT last is the average time that molecules of a dose stay in the body. A word on the clearance: it is the volume of plasma or blood freed of the substance per unit of time. Usually half-life stands for the time needed for the level to fall by half in the phase considered. Take `C[C@H]1[C@H](OC(=O)CCC(=O)O)O[C@@H]2O[C@@]3(C)CC[C@H]4[C@H](C)CC[C@@H]1[C@@]24OO3` [Artesunate]: the IC50 worked out at 110 µg/mL (≈ 286 µM) in series [1]; 10.3 nM in series [3]; 150 µg/mL (≈ 390 µM) in [4]; 130 µg/mL (≈ 338 µM) in [5]; 100 µg/mL (≈ 260 µM) in series [7]; 130 µg/mL (≈ 338 µM) in series [8]. This compound came in with a solubility in [2] of 360 µg/mL (≈ 936 µM). Further, in series [6], the AUC(0-t) worked out at 80700 ng·h/mL. The Cmax in series [6] was 23400 ng/mL. In [6], this compound gave a mean residence time (MRT last) of 2.71 h. The clearance in series [6] was 3.73 mL/min/kg. The compound also showed a half-life in series [6] of 1.52 h.
Take `C[C@H]1[C@@H](O)O[C@@H]2O[C@@]3(C)CC[C@H]4[C@H](C)CC[C@@H]1[C@@]24OO3` [Dihydroartemisinin]: the “Oral median lethal dose” value in [9] was found to be 810 mg/kg weight.
